A short description of series [1]: Plasma levels of enflicoxib and pyrazol metabolite in the 6-month field clinical study (HPLC-MS/MS). The class given is in vivo, client-owned dogs with OA. The settings on record: for Mean plasma level: oral 8 mg/kg then 4 mg/kg weekly. The procedure:
A prospective, multisite, blinded, randomized, placebo-controlled, parallel-group field study was performed in accordance with Good Clinical Practice standards ([16]). The study aimed to confirm the safety and efficacy of enflicoxib treatment of pain and inflammation associated with naturally occurring canine OA in dogs of any breed and sex treated for 6 months. The protocol was approved by the regulatory authorities of both Portugal and Hungary. Written informed consent was obtained from all dog owners prior to enrolment of their dogs. Dogs remained under the care of their owners at home throughout the study.
Before enrolment, all dogs underwent a physical examination, and blood and urine samples were taken. After enrollment, dogs were randomized in a predefined enflicoxib:placebo ratio of 3:1. Enflicoxib was dosed orally at weekly intervals, with an initial dose of 8 mg/kg, followed by once-a-week maintenance doses of 4 mg/kg for a total of 26 weeks. Dogs in the enflicoxib group received Daxocox® tablets (Ecuphar/Animalcare group), while dogs in the placebo group received the same formulation without the active ingredient under the same posology (number of tablets and dosing interval). […] No positive control was included due to difficulties in maintaining blinding with products under different posology during the entire follow-up period.
Two blood samples for popPK analysis were collected from all animals enrolled in the study one on day 44(±2 days)/1.5 months, (similar to the last sample taken in the previous clinical studies), after clinical assessment of pain and lameness and prior to treatment administration and another one at the end of the study on day 189/6 months (±2 days), or individual premature study termination day. Day 189 corresponds to the trough concentration after the 27th weekly administration (PK sample taken at the end of the weekly dosing interval). Meanwhile, day 44 corresponds to a PK sample obtained 2 days after the 7th weekly administration. The veterinary practices had the necessary resources and adequate freezing equipment for the long-term storage of plasma samples. Blood samples were collected into potassium-3-ethylenediaminetetraacetic acid (K3EDTA) labeled tubes, which were immediately centrifuged at ~2,500g for 10 min (at +4 °C whenever possible) to obtain plasma. Once received, plasma was transferred into two labeled propylene tubes (aliquots 1 and 2). Each plasma aliquot was stored frozen at a nominal temperature of −20 (±2) °C until shipment to the Laboratory of analysis Welab Barcelona (Parc Científic de Barcelona, C/Baldiri Reixac 4-12, 08028, Barcelona). The maximum storage time for the samples was 376 days at nominally −20 °C/−80 °C. Considering the long-term stability of enflicoxib and its metabolite in dog plasma samples stored at −20 °C, which spans a minimum of 402 days, the stability of the study samples was guaranteed for the entire duration of the study. Samples were analyzed without information on the treatment allocation (laboratory-blinded study).
Enflicoxib and pyrazol metabolite plasma levels were measured by a previously fully validated high-performance liquid chromatography (HPLC)-method coupled with tandem mass spectrometry (MS/MS) detection as described in Homedes et al. ([4]).

For another series, the system named is Beagle dogs. More on the design: method as in PMID 34082759. The note with it: cited from earlier work.
Details of series [2]: method as in PMID 34160092. The settings on record: previously validated method, cited from earlier work.

Values joined by “and” are separate entries in the source; they are usually repeats but may differ in a detail not shown here. Equal entries are not always repeated. Where two headings read alike, the source gives them in different places. A value given as a limit tells only on which side of the number the result lay.

Regarding `NS(=O)(=O)c1ccc(N2N=C(C(F)(F)F)CC2c2ccc(F)cc2F)cc1` (stereo not drawn) [Enflicoxib], the Mean plasma level in series [1] (day 44 (2 days after 7th weekly administration), N=75) was 491.7 ng/mL and 492 ng/mL; in series [1] (day 93 (premature study termination), N=2) it was 296.8 ng/mL; in series [1] (day 189 (trough after 27th weekly administration), N=65), 262.5 ng/mL; in series [1] (day 189 (trough after 27th weekly administration), N=65, listed as enflicoxib), 263 ng/mL. For the same compound, the Max plasma level was 1,846.5 ng/mL in series [1] (day 44, N=75); 356.0 ng/mL in series [1] (day 93, N=2); 1,846.3 ng/mL in series [1] (day 189, N=65). Besides, the Min plasma level in series [1] (day 44, N=75) was determined as 5.0 ng/mL; in series [1] (day 93, N=2), 237.7 ng/mL; in series [1] (day 189, N=65), 5.0 ng/mL. Besides, the “Probability (%) concentration < 10 ng/mL” value in series [1] (day 44, N=75) was determined as 13.3%; in series [1] (day 44, N=75, listed as enflicoxib) it was 13%; in series [1] (day 93, N=2), 0.0%; in series [1] (day 189, N=65) it was 27.7%; in series [1] (day 189, N=65, listed as enflicoxib), 28%. In addition, the “Probability (%) concentration < LOQ” value is recorded as 9.3% in series [1] (day 44, N=75); 0.0% in series [1] (day 93, N=2); 27.7% in series [1] (day 189, N=65). Also, the “Tolerability in overdose study” value in the series on Beagle dogs (3 times the recommended dose (12 mg/kg) for 7 months) and in the series on Beagle dogs (5 times the recommended dose (20 mg/kg) for 3 months) was “well-tolerated” in each case. Moreover, the “Stability in dog plasma” value in series [2] (following 4 freeze–thaw cycles), in series [2] (nominally −20 °C for 402 days) and in series [2] (room temperature for 4 h) was “stable” in each case. Besides, the “Long-term stability in dog plasma samples” value in series [2] (stored at −20 °C) was at least 402 days.

The values are drawn from publication PMC12505664, “Enflicoxib for the long-term management of canine osteoarthritis—External validation of a population pharmacokinetic model in dogs with osteoarthritis” (Frontiers in Veterinary Science, 2025).
